The values that follow come from ChEMBL document CHEMBL5252604, “11C-Labeling of acyclic retinoid peretinoin by rapid C-[11C]methylation to disclose novel brain permeability and central nervous system activities hidden in antitumor agent” (Bioorg Med Chem Lett, 2023).

A short description of series [1]: Drug uptake in iv dosed Wistar rat assessed as standardized uptake value by PET imaging analysis. As to conditions: in vivo; call rule not given here. The format is ADME, organism-based.
The nature of series [2]: Drug uptake in iv dosed Wistar rat brain after 3 mins. The class given is ADME, organism-based. To be noted: in vivo, 0.05 h.
A short description of series [3]: Drug uptake in iv dosed mouse liver assessed as standardized uptake value at 60 mins by PET imaging analysis. As to conditions: in vivo, 1 h. The class given is ADME, organism-based.
The nature of series [4]: Drug metabolism in iv dosed Wistar rat brain assessed as metabolite formation after 30 to 90 mins RP-HPLC analysis. The format is ADME, organism-based. As to conditions: in vivo, time 30-90 min.
Series [5] can be described thus: Drug uptake in iv dosed Wistar rat brain assessed as standardized uptake value after 120 mins by PET imaging analysis. The format is ADME, organism-based. To be noted: in vivo, 2 h.
A short description of series [6]: Drug uptake in iv dosed mouse liver assessed as standardized uptake value at 5 mins by PET imaging analysis. The format is ADME, organism-based. To be noted: in vivo.
Series [7] is described as follows: Drug uptake in iv dosed monkey brain assessed as standardized uptake value after 90 mins by PET imaging analysis. The format is ADME, organism-based, Macaca mulatta. To be noted: rhesus monkey, in vivo, 1.5 h.
Series [8] in a line: Drug uptake in iv dosed mouse brain assessed as standardized uptake value by PET imaging analysis. As to conditions: in vivo. The class given is ADME, organism-based.
Series [9] in a line: Drug metabolism in iv dosed Wistar rat blood assessed as metabolite formation after 30 mins RP-HPLC analysis. The format is ADME, organism-based. As to conditions: in vivo, 0.5 h.

For the compound `CC(C)=CCC/C(C)=C/CC/C(C)=C/C=C/C([11CH3])=C/C(=O)OCc1ccccc1`, the SUV in series [1] came out at 0.6.
For the compound `CC(C)=CCC/C(C)=C/CC/C(C)=C/C=C/C([11CH3])=C/C(=O)O`, in [2], the Drug uptake result is reported as “Active”. For the same compound, the SUV in series [3] is 4.3; in series [5] it was 1.4; in series [6], 6.7; in [7], > 3; in [8] it was 0.8. For the same compound, the Drug metabolism entry in series [4] and in series [9] was “Metabolite_Detected” in each case.
